Results from patent publication US20220378740A1, “COMPOSITIONS AND METHODS OF MAKING EXPANDED HEMATOPOIETIC STEM CELLS USING DERIVATIVES OF CARBAZOLE” (Transfusion Health, LLC, priority 2019, published 2022).

Assays:
[1] = test system: CD34+ cells from cord blood; test: Expansion of cord blood-derived CD34+ cells in culture, fold change days 1 to 7 (flow cytometry); type: cell-based, human; details: relative to vehicle control (DMSO), 3% oxygen
Procedure: (§1) CD34+ cells from cord blood were purchased from STEMCELL Technologies. Primary human CD34+ cells were isolated by the supplier from cord blood samples using positive immunomagnetic separation techniques. Cells were thawed and gradually brought to room temperature. Samples were washed, then placed in overnight culture in StemSpan with 100 ng/ml each of FLT3L, TPO, SCF, and IL-6. Eighteen to twenty-four hours later (day 1), cells were counted and immunophenotyped (flow cytometry on an Invitrogen Attune N×T cytometer).
Approximately 1000 live cells were plated into each well of 96-well plates (total volume 200 μl); exact cell numbers dispensed per well were quantified with flow cytometry for later calculations.
Media for testing compounds of Formula I, except for compound 2.015, was prepared using StemSpan SFEM (STEMCELL Technologies). Media for testing compound 2.015 was prepared using Alpha-MEM without phenol red (Gibco) with 10% (v/v) heat inactivated fetal bovine serum (FBS). All other treatments are the same for all tested compounds. Culture conditions also included an antibiotic solution that includes penicillin, streptomycin, and amphotericin B to avoid contamination. Additional media components and concentrations used for the compounds tested are described in Table 2.
(§2) All incubations for this experiment took place at 3%˜ oxygen (controlled by nitrogen) and […]. Following seven days of culture, cells from wells were collected and phenotypes were analyzed (flow cytometry on an Invitrogen Attune N×T cytometer).
The graphs in FIG. 1-5 report the fold change in cells between days 1 and 7. Each point in the figures reports the average fold change of the indicated number of replicates at the noted concentration of the compound of Formula I tested. Error bars display the maximum and minimum fold change measured at that concentration. The dashed line reports the expansive effect of the base conditions (i.e. vehicle control).
Table 3, below, summarizes the relative expansive effects of Compounds 2.001 to 2.004 and 2.015 at the indicated concentration. It is calculated as shown below: […]

[2] = test system: HSCs derived from cord blood; test: Long-term (14 day) expansion of hematopoietic stem cells derived from cord blood; type: cell-based, human; details: 14 days in culture; Compound 2.001 at 10 μM, Compound 2.002 at 1 μM, Compound 2.003 at 10 μM
Procedure: as §1, §2
Cells were cultured to seven days as described in Example 5. Following seven days in culture, 25% of cells from selected wells were passaged to 12-well plates (2 ml total volume), with conditions for these wells prepared as on day 1. Wells selected were: Compound 2.001 at 10 μM, Compound 2.002 at 1 μM, Compound 2.003 at 10 μM, and base conditions with vehicle control (DMSO). Cells were then allowed seven further days of expansion prior to analysis at day 14. Cell numbers calculated at day 14 account for the passaging of the cells at day seven.

[3] = 3.162 μM compound, StemSpan SFEM
[4] = 2.819 μM compound, Alpha-MEM without phenol red with 10% FBS

Structure (SMILES) | expansion of HSCs from cord blood in extended culture [2] | CD34 effect (relative expansive effect on CD34+ cells) ([1]; 1 μM compound, StemSpan SFEM) | CD90 effect (relative expansive effect on CD34+/CD133+/CD90+ cells) ([1]; 1 μM compound, StemSpan SFEM) | also measured
CC(=O)Nc1ccc2c(c1)oc1ccccc12 [Compound 2.003, N-{8-oxatricyclo[7.4.0.0^2,7]trideca-1(13),2(7),3,5,9,11-hexaen-5-yl}acetamide] | expand HSCs from cord blood for at least 14 days in culture |  |  | CD34 effect (relative expansive effect on CD34+ cells) [1, 3]: ++++ (1.8 ≤ × < 2.2); CD90 effect (relative expansive effect on CD34+/CD133+/CD90+ cells) [1, 3]: ++++ (1.8 ≤ × < 2.2)
CC(C)(C)C(=O)Nc1ccc2c(c1)oc1ccccc12 [Compound 2.004, 2,2-dimethyl-N-{8-oxatricyclo[7.4.0.0^2,7]trideca-1(13),2(7),3,5,9,11-hexaen-5-yl}propanamide] |  | +++ (1.6 ≤ × < 1.8) | ++ (1.2 ≤ × < 1.6) | 
COc1cc2c(cc1N)oc1ccccc12 [Compound 2.015] |  |  |  | CD34 effect (relative expansive effect on CD34+ cells) [1, 4]: + (1 < × < 1.2); CD90 effect (relative expansive effect on CD34+/CD133+/CD90+ cells) [1, 4]: + (1 < × < 1.2)
CC(=O)Nc1ccc2c(c1)[nH]c1ccccc12 [Compound 2.001, N-(9H-carbazol-2-yl)acetamide] | expand HSCs from cord blood for at least 14 days in culture |  |  | CD34 effect (relative expansive effect on CD34+ cells) ([1]; 10 μM compound, StemSpan SFEM): ++++ (1.8 ≤ × < 2.2); CD90 effect (relative expansive effect on CD34+/CD133+/CD90+ cells) ([1]; 10 μM compound, StemSpan SFEM): +++++ (2.2 ≤×)
CC(C)(C)C(=O)Nc1ccc2c(c1)[nH]c1ccccc12 [Compound 2.002, N-(9H-carbazol-2-yl)-2,2-dimethylpropanamide] | expand HSCs from cord blood for at least 14 days in culture | ++++ (1.8 ≤ × < 2.2) | ++++ (1.8 ≤ × < 2.2) | 
